Test results: patent US9115143B2, “Substituted indole derivatives as gamma secretase modulators” (Janssen Pharmaceuticals, Inc., priority 2011, dated 2015)

Columns and labels:
[1] = system: Aβtotal; test: Screening for γ-secretase-modulating activity: Aβtotal in supernatant of SKNBE2 cells carrying hAPP 695 wild type (Alphalisa); type: cell-based, human; conditions: overnight incubation, Alphalisa on supernatant
Method in brief: (§1)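 Secreted Aβ42 (C-terminal/N-terminal antibody pair) and Aβtotal (N-terminal/mid-region pair) were quantified by AlphaLISA after overnight compound exposure of wild-type hAPP 695 SKNBE2 cells at 37 °C. Values expressed relative to compound-free maximum, with IC50 from nonlinear 4-parameter regression.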

[2] = system: Aβ42; test: Screening for γ-secretase-modulating activity: Aβ42 in supernatant of SKNBE2 cells carrying hAPP 695 wild type (Alphalisa); type: cell-based, human; conditions: overnight incubation, Alphalisa on supernatant
Method in brief: as §1

[3] = system: Aβtotal; test: In vivo efficacy B-1a/B-2a: brain soluble Aβtotal in non-transgenic rodents, ELISA; set-up: species or system mouse; conditions: dose 30 mg/kg oral dosing, brain soluble fraction, untreated animals (Ctrl) set at 100; for response vs control in vivo at 30 mg/kg: Mus musculus, po, 4 h, read-out: Aβtotal (% vs Ctrl)_Mean
Text: To determine whether acute administration of an Aβ42 lowering agent would reduce Aβ42 levels in vivo, non-transgenic rodents, e.g. mice or rats were used. Animals treated with the Aβ42 lowering agent were examined and compared to those untreated or treated with vehicle and brain levels of soluble Aβ42 and total Aβ were quantitated by standard techniques, for example, using ELISA. Treatment periods varied from hours (h) to days and were adjusted based on the results of the Aβ42 lowering once a time course of onset of effect could be established.
A typical protocol for measuring Aβ42 lowering in vivo is shown but it is only one of many variations that could be used to optimize the levels of detectable Aβ. For example, Aβ42 lowering compounds were formulated in 20% of Captisol® (a sulfobutyl ether of β-cyclodextrin) in water or 20% hydroxypropyl β cyclodextrin. The Aβ42 lowering agents were administered as a single oral dose or by any acceptable route of administration to overnight fasted animals. After 4 h, the animals were sacrificed and Aβ42 levels were analysed.
Blood was collected by decapitation and exsanguinations in EDTA-treated collection tubes. Blood was centrifuged at 1900 g for 10 minutes (min) at 4° C. and the plasma recovered and flash frozen for later analysis. The brain was removed from the cranium and hindbrain. The cerebellum was removed and the left and right hemisphere were separated. The left hemisphere was stored at −18° C. for quantitative analysis of test compound levels. The right hemisphere was rinsed with phosphate-buffered saline (PBS) buffer and immediately frozen on dry ice and stored at −80° C. until homogenization for biochemical assays.
Mouse brains from non-transgenic animals were resuspended in 8 volumes of 0.4% DEA (diethylamine)/50 mM NaCl containing protease inhibitors (Roche-11873580001 or 04693159001) per gram of tissue, e.g. for 0.158 g brain, add 1.264 mL of 0.4% DEA. All samples were homogenized in the FastPrep-24 system (MP Biomedicals) using lysing matrix D (MPBio #6913-100) at 6 m/s for 20 seconds. Homogenates were centrifuged at 20800×g for 5 min and supernatants collected. Supernatants were centrifuged at 221.300×g for 50 min. The resulting high speed supernatants were then transferred to fresh eppendorf tubes. Nine parts of supernatant were neutralized with 1 part 0.5 M Tris-HCl pH 6.8 and used to quantify Aβtotal and Aβ42.
To quantify the amount of Aβtotal and Aβ42 in the soluble fraction of the brain homogenates, Enzyme-Linked-Immunosorbent-Assays were used. Briefly, the standards (a dilution of synthetic Aβ1-40 and Aβ1-42, Bachem) were prepared in 1.5 mL Eppendorf tube in Ultraculture, with final concentrations ranging from 10000 to 0.3 pg/mL. The samples and standards were co-incubated with HRPO-labelled N-terminal antibody JRF/rAμ/2 for Aβ42 detection and with the biotinylated mid-domain antibody 4G8 for Aβtotal detection. 50 μl of conjugate/sample or conjugate/standards mixtures were then added to the antibody-coated plate (the capture antibodies selectively recognize the C-terminal end of Aβ42, antibody JRF/cAβ42/26, for Aβ42 detection and the N-terminus of AB, antibody JRF/rAβ/2, for Aβtotal detection). The plate was allowed to incubate overnight at 4° C. in order to allow formation of the antibody-amyloid complex. Following this incubation and subsequent wash steps the ELISA for Aβ42 quantification was finished by addition of Quanta Blu fluorogenic peroxidase substrate according to the manufacturer's instructions (Pierce Corp., Rockford, Ill.). A reading was performed after 10 to 15 min (excitation 320 nm/emission 420 nm).
For Aβtotal detection, a Streptavidine-Peroxidase-Conjugate was added, followed 60 min later by an additional wash step and addition of Quanta Blu fluorogenic peroxidase substrate according to the manufacturer's instructions (Pierce Corp., Rockford, Ill.). A reading was performed after 10 to 15 min (excitation 320 nm/emission 420 nm). […]

[4] = Homo sapiens, SKNBE2, SKNBE2 human neuroblastoma cells carrying hAPP 695 wild type
[5] = SKNBE2 human neuroblastoma cells carrying hAPP 695 wild type

Row | Structure (SMILES) | IC50 [1, 4] [µM] | IC50 [2, 4] [nM] | response vs control in vivo at 30 mg/kg [3] [%] | IC50 [1, 5] [µM] | IC50 [2, 5] [nM] | Aβtotal (% vs Ctrl)_Mean [3] [% vs Ctrl]
1 | Cc1cn(-c2cc3cc(-c4nc5n(n4)CCCC5c4ccccc4C)[nH]c3cn2)cn1 (centres unmarked) [Compound 30, 5,6,7,8-tetrahydro-2-[5-(4-methyl-1H-imidazol-1-yl)-1H-pyrrolo[2,3-c]pyridin-2-yl]-8-(2-methylphenyl)-[1,2,4]triazolo[1,5-a]pyridine] | > 10 | 52 | 97 |  |  | 
2 | Cc1cn(-c2ccc3[nH]c(-c4nc5n(n4)CCCC5c4ccc(F)cc4C)nc3c2)cn1 (centres unmarked) [Compound 176, 8-(4-fluoro-2-methylphenyl)-5,6,7,8-tetrahydro-2-[5-(4-methyl-1H-imidazol-1-yl)-1H-benzimidazol-2-yl]-[1,2,4]triazolo[1,5-a]pyridine] |  |  | 101 | > 10 | 89 | 
3 | Cc1cn(-c2ccc3[nH]c(-c4nc5n(n4)CCOC5c4ccc(F)cc4C)cc3c2)cn1 (centres unmarked) [Compound 39, 8-(4-fluoro-2-methylphenyl)-5,6-dihydro-2-[5-(4-methyl-1H-imidazol-1-yl)-1H-indo-2-yl]-8H-[1,2,4]triazolo[5,1-c][1,4]oxazine] |  |  |  | 0.214 | 38 | 99
4 | COc1c(C#N)ccc2[nH]c(-c3nc4n(n3)CCOC4c3c(F)cccc3Cl)cc12 (single isomer, unassigned) [Compound 117, 2-[8-(2-chloro-6-fluorophenyl)-5,6-dihydro-8H-[1,2,4]triazolo[5,1-c][1,4]oxazin-2-yl]-4-methoxy-1H-indole-5-carbonitrile] | > 10 |  | 103 |  | 37 | 
5 | Cc1cc(F)ccc1C1CCCn2nc(-c3cc4nc(-c5cnn(C)c5)ccc4[nH]3)nc21 (centres unmarked) [Compound 69, 8-(4-fluoro-2-methylphenyl)-5,6,7,8-tetrahydro-2-[5-(1-methyl-1H-pyrazol-4-yl)-1H-pyrrolo[3,2-b]pyridin-2-yl]-[1,2,4]triazolo[1,5-a]pyridine] |  |  | 122 | > 10 | 117 | 
6 | COc1c(C#N)ccc2[nH]c(-c3nc4n(n3)CCCC4c3ccc(F)cc3C)cc12 (centres unmarked) [Compound 59, 2-[8-(4-fluoro-2-methylphenyl)-5,6,7,8-tetrahydro[1,2,4]triazolo[1,5-a]pyridin-2-yl]-4-methoxy-1H-indole-5-carbonitrile] | 3.71 | 25 | 86 |  |  | 
7 | COc1c(C#N)ccc2[nH]c(-c3nc4n(n3)CCCC4c3ccccc3C(F)(F)F)cc12 (centres unmarked) [Compound 7, 4-methoxy-2-[5,6,7,8-tetrahydro-8-[2-(trifluoromethyl)phenyl][1,2,4]triazolo[1,5-a]pyridin-2-yl]-1H-indole-5-carbonitrile] | > 10 | 35 | 96 |  |  | 
8 | Cc1ccccc1C1CCCn2nc(-c3cc4cc(C#N)ccc4[nH]3)nc21 (centres unmarked) [Compound 13, 2-[5,6,7,8-tetrahydro-8-(2-methylphenyl)[1,2,4]triazolo[1,5-a]pyridin-2-yl]-1H-indole-5-carbonitrile] |  |  | 80 | > 10 | 72 | 
9 | Cc1cc(F)ccc1C1OCCn2cc(-c3cc4cc(-c5cnn(C)c5)ccc4[nH]3)nc21 (centres unmarked) [Compound 99, 8-(4-fluoro-2-methylphenyl)-5,6-dihydro-2-[5-(1-methyl-1H-pyrazol-4-yl)-1H-indol-2-yl]-8H-imidazo[2,1-c][1,4]oxazine] | > 10 | 78 | 115 |  |  | 
10 | N#Cc1ccc2[nH]c(-c3nc4n(n3)CCCC4c3cccc(OC(F)(F)F)c3)cc2c1 (centres unmarked) [Compound 20, 2-[5,6,7,8-tetrahydro-8-[3-(trifluoromethoxy)phenyl][1,2,4]triazolo[1,5-a]pyridin-2-yl]-1H-indole-5-carbonitrile] | > 10 | 275 | 113 |  |  | 
11 | COc1c(-c2cnn(C)c2)ccc2[nH]c(-c3cn4c(n3)C(c3ccc(F)cc3C)OCC4)cc12 (centres unmarked) [Compound 96, 8-(4-fluoro-2-methylphenyl)-5,6-dihydro-2-[4-methoxy-5-(1-methyl-1H-pyrazol-4-yl)-1H-indol-2-yl]-8H-imidazo[2,1-c][1,4]oxazine] | > 10 | 74 | 92 |  |  | 
12 | Cc1cc(F)ccc1C1CCCn2nc(-c3cc4cc(C#N)ccc4[nH]3)nc21 (centres unmarked) [Compound 10, 2-[8-(4-fluoro-2-methylphenyl)-5,6,7,8-tetrahydro[1,2,4]triazolo[1,5-a]pyridin-2-yl]-1H-indole-5-carbonitrile] |  |  | 105 | > 10 | 102 | 
13 | Cc1cn(-c2ccc3[nH]c(-c4nc5n(n4)CCCC5c4ccc(F)cc4C)cc3c2)cn1 (single isomer, unassigned) [Compound 77, 8-(4-fluoro-2-methylphenyl)-5,6,7,8-tetrahydro-2-[5-(4-methyl-1H-imidazol-1-yl)-1H-indol-2-yl]-[1,2,4]triazolo[1,5-a]pyridine] |  |  | 102 | > 10 | 24 | 
14 | Cc1cc(F)ccc1C1CCCn2nc(-c3[nH]c4ccc(C#N)cc4c3F)nc21 (single isomer, unassigned) [Compound 182, 3-fluoro-2-[8-(4-fluoro-2-methylphenyl)-5,6,7,8-tetrahydro[1,2,4]triazolo[1,5-a]pyridin-2-yl]-1H-indole-5-carbonitrile] |  |  | 118 | > 10 | 117 | 
15 | COc1c(C#N)ccc2[nH]c(-c3cn4c(n3)C(c3ccc(F)cc3C)CCC4)cc12 (centres unmarked) [Compound 74, 2-[8-(4-fluoro-2-methylphenyl)-5,6,7,8-tetrahydroimidazo[1,2-a]pyridin-2-yl]-4-methoxy-1H-indole-5-carbonitrile] | > 10 | 112 | 85 |  |  | 
16 | Cc1cn(-c2ccc3[nH]c(-c4nc5n(n4)CCCC5c4ccccc4C(F)(F)F)cc3c2)cn1 (centres unmarked) [Compound 8, 5,6,7,8-tetrahydro-2-[5-(4-methyl-1H-imidazol-1-yl)-1H-indol-2-yl]-8-[2-(trifluoromethyl)phenyl]-[1,2,4]triazolo[1,5-a]pyridine] | > 10 | 46 | 86 |  |  | 
17 | Cc1cn(-c2ccc3[nH]c(-c4nc5n(n4)CCCC5c4ccccc4C)cc3n2)cn1.Cl (centres unmarked) [Compound 5, 5,6,7,8-tetrahydro-2-[5-(4-methyl-1H-imidazol-1-yl)-1H-pyrrolo[3,2-b]pyridin-2-yl]-8-(2-methylphenyl)-[1,2,4]triazolo[1,5-a]pyridine] | > 10 | 105 | 80 |  |  | 
18 | COc1c(C#N)ccc2[nH]c(-c3nc4n(n3)CCOC4c3ccc(F)cc3C)cc12 (centres unmarked) [Compound 114, 2-[8-(4-fluoro-2-methylphenyl)-5,6-dihydro-8H-[1,2,4]triazolo[5,1-c][1,4]oxazin-2-yl]-4-methoxy-1H-indole-5-carbonitrile] |  |  |  | > 10 | 32 | 
